According to patent publication US8834930B2, “Pulmonary delivery of a fluoroquinolone” (Novartis AG, priority 2008, dated 2014):

What was measured:
[1] = Surface properties (BET specific surface area, porosity, rugosity); assay type: physicochemical
Excerpt: As used herein, specific surface area (SSA) refers to the SSA calculated from gas adsorption data according to a theory developed by Brunauer, Emmett, and Teller (J Amer Chem Soc 1938, 60:309), generally referred to as the BET method.
As used herein, particle porosity refers to the total pore volume in %, calculated from nitrogen gas absorption data. In nitrogen adsorption, the pores are filled (and emptied) according to the Kelvin capillary condensation equation. As the partial pressure of nitrogen increases, condensation of the gas will begin in the smaller pores and progressively fill larger and larger pores until bulk condensation occurs. Using this technique, nitrogen is first condensed in the pores by setting the partial pressure of nitrogen to a value near saturation. Then, the nitrogen is gradually desorbed in a stepwise fashion by reducing its vapor pressure. The pore size distribution is calculated by analyzing the nitrogen desorption isotherm using the Kelvin equation to determine the amount of condensed nitrogen in the pores (assuming a cylindrical pore geometry), wherein the adsorptive loss at each step represents the core volume of pores emptied during that step. The calculation is automated, and follows the algorithm proposed by Barrett et al (Barrett E P, Joyner L G, Halenda P P: The determination of pore volume and area distributions in porous substances I. computations from nitrogen isotherms. J Amer Chem Soc 1951, 73:373-380). This approach holds for pore diameters as small as about 2 nm, i.e., down to the […] region.
Rugosity (Sv) is a measure of the surface roughness of an engineered powder. For the purposes of this invention, rugosity is calculated from the specific surface area obtained from BET measurements, the true density obtained by helium pycnometry, and the surface/volume ratio of the particle obtained by laser diffraction (Sympatec), viz:
Significant increases in specific surface area, porosity, and rugosity Sv are observed for the phospholipid-coated particles relative to micronized drug. […]

[2] = Powder dispersibility, laser diffraction with varied RODOS dispersing pressure; assay type: physicochemical; details: dispersing pressure 0.2 bar
Experimental: As used herein, the relative dispersibility of spray-dried powders is determined with the Sympatec (laser diffraction) by varying the dispersing pressure of the RODOS dispersion unit, from about 0.2 bar to 4.0 bar. As used herein, the dispersibility index, δ (delta), is defined as the ratio of the x50 measured at a dispersing pressure of 0.2 bar to that at 4.0 bar.
The relative dispersibility of powder formulations can be studied with the laser diffraction technique by varying the dispersing pressure in the RODOS disperser. […] The ratio of the median particle sizes measured at low and high dispersing pressures is a measure of the dispersibility of the powder.

[3] = background; cited from earlier work

O=C(O)c1cn(C2CC2)c2cc(N3CCNCC3)c(F)cc2c1=O [Lot BXA1GE7]
Rugosity Sv ([1]; API shape factor = 1.27): 1.1 | Specific Surface Area ([1]; BET): 4.4 m^2/g | Sympatec Sv ([1]; laser diffraction): 4.91 m^2/cm^3

O=C(O)c1cn(C2CC2)c2cc(N3CCNCC3)c(F)cc2c1=O [ciprofloxacin betaine]
x50 [2]: 3.5 μm

O=C(O)c1cn(C2CC2)c2cc(N3CCNCC3)c(F)cc2c1=O [ciprofloxacin]
pK1 [3]: 6.0
